These are literature values, as cited in US10925864B2, “Stable liquid injectable solution of midazolam and pentazocine” (NEON LABORATORIES LIMITED, priority 2015, dated 2021).

For data set [1] the following is noted: water / aqueous solutions.
For data set [2] the following is noted: after IM administration in adults.

Each structure is given as a SMILES string. Structures can show the parent of a compound that is named as a salt. Where two headings read alike, the source gives them in different places.

For the molecule `Cc1ncc2n1-c1ccc(Cl)cc1C(c1ccccc1F)=NC2` [Midazolam], the solubility result in data set [1] was “insoluble in water”. For the same molecule, in data set [2], the “Onset time of sedative effects” value is 15 min. Take `Cc1ncc2n1-c1ccc(Cl)cc1C(c1ccccc1F)=NC2` [hydrochloride salt of midazolam, Midazolam hydrochloride]: in data set [1] (hydrochloride), the solubility entry was “soluble in aqueous solutions”.
